What all share (assay type): functional
Assay [1] concerns Macrophage. Kind of assay: Antiinflammatory activity in Escherichia coli O6:K2:H1-induced human M1 macrophage assessed as change in total LTB4 level at 10 uM preincubated for 10 mins followed by Escherichia coli O6:K2:H1-stimulation and measured after 180 mins by UPLC-MS/MS analysis relative to control.
Assay [2] deals with Macrophage. Kind of assay: Antiinflammatory activity in Escherichia coli O6:K2:H1-induced human M1 macrophage assessed as change in 12-HETE level at 1 uM preincubated for 10 mins followed by Escherichia coli O6:K2:H1-stimulation and measured after 180 mins by UPLC-MS/MS analysis relative to control.
Assay [3] has as its system Macrophage. Kind of assay: Antiinflammatory activity in Escherichia coli O6:K2:H1-induced human M2 macrophage assessed as change in LTB4 level at 10 uM preincubated for 10 mins followed by Escherichia coli O6:K2:H1-stimulation and measured after 180 mins by UPLC-MS/MS analysis relative to control.
Assay [4] concerns Macrophage. Briefly: Antiinflammatory activity in Escherichia coli O6:K2:H1-induced human M1 macrophage assessed as change in 18-HEPE level at 1 uM preincubated for 10 mins followed by Escherichia coli O6:K2:H1-stimulation and measured after 180 mins by UPLC-MS/MS analysis relative to control.
The subject of assay [5] is Macrophage. Briefly: Antiinflammatory activity in Escherichia coli O6:K2:H1-induced human M2 macrophage assessed as change in 14-HDHA level at 10 uM preincubated for 10 mins followed by Escherichia coli O6:K2:H1-stimulation and measured after 180 mins by UPLC-MS/MS analysis relative to control.
Assay [6] relates to Macrophage. Kind of assay: Antiinflammatory activity in Escherichia coli O6:K2:H1-induced human M2 macrophage assessed as change in 12-HEPE level at 10 uM preincubated for 10 mins followed by Escherichia coli O6:K2:H1-stimulation and measured after 180 mins by UPLC-MS/MS analysis relative to control.
The test system of assay [7] is Macrophage. Kind of assay: Antiinflammatory activity in Escherichia coli O6:K2:H1-induced human M2 macrophage assessed as change in 5-HETE level at 10 uM preincubated for 10 mins followed by Escherichia coli O6:K2:H1-stimulation and measured after 180 mins by UPLC-MS/MS analysis relative to control.
In assay [8] the test system is Macrophage. Briefly: Antiinflammatory activity in Escherichia coli O6:K2:H1-induced human M2 macrophage assessed as change in 17-HDHA level at 10 uM preincubated for 10 mins followed by Escherichia coli O6:K2:H1-stimulation and measured after 180 mins by UPLC-MS/MS analysis relative to control.
In assay [9] the test system is Macrophage. Briefly: Antiinflammatory activity in Escherichia coli O6:K2:H1-induced human M1 macrophage assessed as change in 7-HDHA level at 1 uM preincubated for 10 mins followed by Escherichia coli O6:K2:H1-stimulation and measured after 180 mins by UPLC-MS/MS analysis relative to control.
The subject of assay [10] is Macrophage. Kind of assay: Antiinflammatory activity in Escherichia coli O6:K2:H1-induced human M2 macrophage assessed as change in 12-HETE level at 10 uM preincubated for 10 mins followed by Escherichia coli O6:K2:H1-stimulation and measured after 180 mins by UPLC-MS/MS analysis relative to control.
For assay [11], the system named is Macrophage. Briefly: Antiinflammatory activity in Escherichia coli O6:K2:H1-induced human M2 macrophage assessed as change in 7-HDHA level at 10 uM preincubated for 10 mins followed by Escherichia coli O6:K2:H1-stimulation and measured after 180 mins by UPLC-MS/MS analysis relative to control.

The values that follow come from ChEMBL document CHEMBL4342480, “Design of Dual Inhibitors of Soluble Epoxide Hydrolase and LTA4 Hydrolase” (ACS Med Chem Lett, 2020).

As for `O=C(Cc1ccc(Oc2nc3ccccc3s2)cc1F)NCCc1ccc(F)cc1`, the Activity in the assay with Macrophage [1] worked out at 28%; with Macrophage [2], 99%; in the assay with Macrophage [3] it was 23%; in the assay on Macrophage [4] it was 74%; in the assay with Macrophage [5], 106%; with Macrophage [6], 105%. The Activity with Macrophage [7] amounted to 44%; in the assay with Macrophage [8], 135%; in the assay on Macrophage [9] it was 113%; with Macrophage [10], 114%; in the assay with Macrophage [11], 77%.
